Results as given in ChEMBL document CHEMBL3507680, “University of Dundee, Gates Library screen for HepG2 cell viability”.

Assay: Human HepG2 cell viability assay in 384 well format
Format: toxicity, cell-based
Parameters: dose 125 nL, time 70.5 hour; concentration not given beside the values
Conditions: HepG2 cells, read-out: Inhibition

SMILES	cytotoxicity at 70.5 h
N#Cc1ccccc1C(=O)NCCC1CN(Cc2ccco2)CCO1 (stereo not drawn)	2.72%
O=C(NCC1(O)CCC1)c1cccc(-n2cccn2)c1	-11.6%
FC(F)(F)c1nc(C2CCCNC2)no1 (stereo not drawn)	-0.742%
CSc1ccc(C(=O)C2CCCN(C(=O)CCCn3cncn3)C2)cc1 (stereo not drawn)	-6.96%
O=C(O)Cn1ccc2c(Cl)cccc21	-1.23%
CC(=O)N1CCC2(CCN(CC3CCOC3)C2)CC1 (stereo not drawn)	-1.33%
CC(c1ccccc1F)N(CC(N)=O)C1CC1 (stereo not drawn)	-4.03%
CCc1nc(CCNC(=O)NC2CC(=O)N(C(C)(C)C)C2)cs1 (stereo not drawn)	-5.26%
N#CC1(NC(=O)c2ccn(-c3ccccc3Cl)n2)CCSC1 (stereo not drawn)	-10.3%
CO[C@H]1CNC[C@@H]1NC(=O)CCc1nc(-c2ccccc2)no1	-0.167%
COCCN1C(=O)c2ccc(C(=O)NCCc3c[nH]cn3)cc2C1=O	-5.32%
COc1cccc(C2CCCN2Cc2nnnn2C2CC2)c1 (stereo not drawn)	-3.76%
Cc1n[nH]c(C2CN(C(=O)c3cc4c(s3)CCCC4)CCO2)n1 (stereo not drawn)	-4.81%
Cc1cnc(N2CCN3C[C@H](OCc4cccc(C)n4)C[C@H]3C2)nc1	0.481%
Cc1ccc2c(n1)N(Cc1cccnc1)CCN(C(=O)C1CCC1)C2	-12.9%
COc1ccc(F)c(NCc2ccc(C(=O)N(C)C)[nH]2)c1	15.8%
COC[C@@]12CC[C@@H](N3CCOCC3)C[C@H]1CCN(c1nc(CO)cs1)C2	10.8%
CN(Cc1noc(C2CC2)n1)C1CCCN(c2cccnn2)C1 (stereo not drawn)	0.945%
COc1ccc(CN2C[C@@H]3OCC(=O)N(Cc4nccn4C)[C@@H]3C2)cc1	-3.1%
CN(CCO)Cc1nnc(C2CCN(C(=O)C3CCOCC3)CC2)n1C	1.69%
O=c1c2cccc(Cl)c2ncn1C1CCNC1 (stereo not drawn)	-10.4%
Cc1nc(CN2CCCC2Cn2cccn2)nc2ccccc12 (stereo not drawn)	7.51%
CCC(CNC(=O)C1CCC1)(OC)c1ccccc1 (stereo not drawn)	-1.73%

SMILES	cytotoxicity at 70.5 h
COC(=O)[C@]12CNC[C@H]1CN(Cc1nc(C)c[nH]1)C2	8.04%
CCN(C(=O)c1c(Cl)cnn1CC)C(C)C(N)=O (stereo not drawn)	-11.3%
Cc1ccsc1C(Cn1ccnc1-c1ccccc1C(=O)O)N(C)C (stereo not drawn)	19.1%
COc1ccc(C(CC(=O)NCc2n[nH]c(N)n2)c2ccccc2)cc1 (stereo not drawn)	-4.65%
Cc1ccccc1C(=O)NC[C@@H]1CCN(C(=O)c2cccn2C)C[C@H]1O	-13%
Cc1csc(C(C#N)C(=O)NCc2cccnc2)n1 (stereo not drawn)	-5.59%
Cc1nc2c(c(NC3CC3)n1)CCN(C(=O)C1(C#N)CC1)CC2	-16.3%
Cc1cc(NCc2nnc3n2CCC3)n2nc(C)c(C)c2n1	-12.3%
Cc1cc2c(cc1C(=O)N1CCC3(CC(=O)NC3=O)C1)OCCO2 (stereo not drawn)	10.6%
CCN(Cc1ccc2c(c1)OCCO2)C(=O)c1ccc(C)[nH]c1=O	-1.79%
O=C(c1ccccc1F)N1CCCC1Cn1c(=O)oc2ccccc21 (stereo not drawn)	-0.201%
CC(Cc1cccc(F)c1)C(=O)NS(=O)(=O)c1ccc2c(c1)OCCO2 (stereo not drawn)	19.6%
COc1cc2c(cc1OC)CN(C(=O)NC(C)c1nncn1C)CC2 (stereo not drawn)	26.1%
Cn1ncc(Cl)c1C(=O)NCCN1CCC(O)(c2ccc(F)cc2)CC1	5.46%
CN(C)C(=O)c1ccc2ccc(N3CCN(CC4CC4)CC3)n2c1	19.2%
O=C(CCc1cccs1)N1CCC(N2CCNC2=O)CC1	-0.95%
O=S(=O)(Nc1cnc(N2CCOCC2)nc1)c1ccc(Cl)cc1	3.18%
COCCn1ccc(NC(=O)Nc2cccnc2)n1	-2.62%
CCC[C@@H]1CN(Cc2ccc3c(c2)OCCO3)C[C@H]1C(=O)O	-0.0956%
Cc1c[nH]nc1C1CCCN1Cc1ccncc1 (stereo not drawn)	-4.73%
Cc1ccn2c(F)c(C(=O)N3CCC4(CCCN(C)C4=O)C3)nc2c1 (stereo not drawn)	-8.44%
COc1ccccc1OC1CCN(C(=O)CCCN2CCOCC2)CC1	-9.29%
Clc1cccc(C(CNCc2ccccn2)N2CCOCC2)c1 (stereo not drawn)	48.6%

SMILES	cytotoxicity at 70.5 h
CCC(=O)NCc1cc(C2CC2)n(C2CCCC2)n1	13.9%
COc1ncccc1C(=O)N1C[C@@H]2COC[C@]2(CN(C)C)C1	-1.76%
CCN1CCN(C2CCN(Cc3c(C)noc3C)CC2)C1=O	25.5%
Cc1cccc(N2CCN(CCNC(=O)C(C)n3cncn3)CC2)c1 (stereo not drawn)	-6.98%
COc1cccc(C2CC(=O)Nc3nc(N4CCCCC4)sc32)c1OC (stereo not drawn)	-6.7%
CC(c1nccs1)n1cc(-c2cc(CN3CCCCC3)cs2)nn1 (stereo not drawn)	-4.83%
c1cncc(-n2cnnc2CC2CCNCC2)c1	-0.719%
CO[C@@H]1CC[C@H]2[C@H]1OCCN2CC1CCOCC1	-2.79%
Cc1cc(C(NC(=O)CNS(C)(=O)=O)C(C)C)c(C)s1 (stereo not drawn)	1.39%
Cc1ccc(S(=O)(=O)NCc2cccc(C(=O)N3CCCC3)c2)cc1F	-7.96%
Cc1ccc(N2CCN(C(=O)CCc3n[nH]c(C)n3)CC2=O)cc1	-8.56%
O=c1[nH]cnc2[nH]c(N3CCNCC3)nc12	-2.26%
Cc1ccc(OCC(O)COC2CCOCC2)c(Br)c1 (stereo not drawn)	-10.6%
Cc1nc(CO[C@H]2CN(C(=O)c3cnoc3C)[C@@H]3COC[C@H]23)cs1	-3.09%
O=C(Nc1ccccc1Oc1cccc(F)c1)NC1CCS(=O)(=O)C1 (stereo not drawn)	2.26%
Cc1cccc(N2N=C(C(=O)NC(C)Cn3cccn3)CCC2=O)c1 (stereo not drawn)	-14.7%
Cc1ccc(C(C(=O)NCCc2nc(C)cc(C)n2)N(C)C)cc1 (stereo not drawn)	-4.39%
Cc1ccc(-c2ncc(C(=O)NCCNC(=O)C3CC3)s2)c(C)c1	-6.37%
Cc1nc(C(C)C)sc1C(=O)NCCNc1ncccc1C#N	-1.44%
Cc1ccc(C(=O)NCC2Cc3ccccc3O2)cc1S(C)(=O)=O (stereo not drawn)	-1.47%
COc1ccccc1S(=O)(=O)N1CCN(C)[C@@H]2CS(=O)(=O)C[C@@H]21	24.4%
Cc1ccccc1SC1CCN(C(=O)[C@H]2[C@@H]3CNC[C@@H]32)CC1	-1.38%
CC(C)CNC(=O)CSC1CCc2ccccc2NC1=O (stereo not drawn)	-15.8%

SMILES	cytotoxicity at 70.5 h
CC(C)NS(=O)(=O)c1cc(C(=O)O)cc(-n2cc3c(n2)CCC3)c1	-0.272%
c1ccc(CN2CCC(Cc3noc(C4CC4)n3)CC2)cc1	-5.84%
Cc1cc(C)n(CC2CCN(CC(O)COc3ccccc3)CC2)n1 (stereo not drawn)	-6.54%
Cc1ccc(C(C)NC(=O)N2CCCN(CC(F)F)CC2)s1 (stereo not drawn)	-2.75%
Cc1noc(C)c1CN1CCCC1c1nc(-c2ccccc2)no1 (stereo not drawn)	-2.38%
Cc1nc(C)n(CC2CCCN(Cc3ccccc3C#N)C2)n1 (stereo not drawn)	22.8%
Cc1cc(C)c(-n2cc(CCO)cn2)cc1C	22.1%
Cc1c(CN2CCCC(C(=O)c3ccc(C(C)(C)C)cc3)C2)cnn1C (stereo not drawn)	-4.49%
O=C(NC1CCCN(CCCc2ccccc2)C1)C1=CCCCC1 (stereo not drawn)	-0.678%
COCCNC(=O)C1CN(Cc2ccsc2)Cc2ccnn2C1 (stereo not drawn)	1.38%
CC(NCc1ccc(F)cc1)c1ccc(S(C)(=O)=O)cc1 (stereo not drawn)	-7.76%
CCC(=O)NCC(=O)NC(Cc1ccccc1)c1sccc1C (stereo not drawn)	-2.67%
COc1ccc(CC2CN(Cc3cncn3C)CCO2)cc1 (stereo not drawn)	-9.57%
Cn1cccc(NC(=O)N2CCC(COCc3ccccc3)C2)c1=O (stereo not drawn)	7.11%
O=C1NCCCC12CCN(c1nc3c(c(C(F)(F)F)n1)CCCC3)C2 (stereo not drawn)	-6%
CC(=O)N(C)Cc1cccc(NC(=O)N(C)Cc2nccs2)c1	-4.8%
COc1ccc(C(C)NCCC(N)=O)cc1F (stereo not drawn)	1.06%
O=C(CN1C(=O)CCC1=O)NCC1(O)CCc2ccccc21 (stereo not drawn)	1.38%
CC(C)C(C)NC(=O)Nc1cccc(OCC#N)c1 (stereo not drawn)	-8.7%
Cc1cnn(CC2CCCN2C(=O)Cc2n[nH]c3ccccc23)c1 (stereo not drawn)	-14.5%
c1ccc(-n2ccc(CN3CCOC(Cn4cncn4)C3)n2)cc1 (stereo not drawn)	-8.56%
CC(=O)c1ccc(Cl)c(Cl)c1OCC(=O)NCC(F)(F)F	-8.87%
CCCn1nc(C)c(CNC(=O)C2COc3c(cccc3OC)C2)c1C (stereo not drawn)	-10.5%

SMILES	cytotoxicity at 70.5 h
COc1cccc(F)c1C(C)NC(=O)NCc1cc(C(C)C)no1 (stereo not drawn)	-12.9%
COCCN(C)C(=O)Nc1ccc2c(ccn2CC(=O)N(C)C)c1	-3.43%
Cc1cc(C(=O)NCCN2CCCCC2C)nn1C(C)(C)C (stereo not drawn)	-10.9%
Cc1cc(C(=O)N2C[C@H]3CCC[C@@]3(CO)C2)c2ccc(F)cc2n1	-1.1%
Cc1cc(=O)n(CCNS(=O)(=O)c2ccc(F)c(Cl)c2)cn1	-4.51%
CC(C)NC(=O)N1CCN2C(=O)N(Cc3ccc(F)cc3)C[C@H]2C1	-4.66%
O=c1c(NCCNCCO)c(N2CCN(Cc3ccccc3)CC2)c1=O	-3.52%
CCCn1c(NCCc2ccccc2)nc2c(C)nn(C)c2c1=O	11.6%
CN(C)c1ncc(-c2cc(C(=O)N3CCCC3)n(CC3CC3)c2)cn1	-11%
Cc1ccc(NC(=O)C2CSCN2C(=O)c2cnccn2)c(C)c1 (stereo not drawn)	-5.93%
CC(NC(=O)Cn1ccc(=O)n(C)c1=O)c1cc(F)ccc1F (stereo not drawn)	-1.78%
CC1CCCCN1c1nc2c(c(=O)[nH]1)CCN(Cc1cccnc1)C2 (stereo not drawn)	-3.39%
Cc1ccc(CNC(=O)NC(C)CCS(C)(=O)=O)cc1F (stereo not drawn)	-7.34%
COc1cc(OC)cc(N2CCC(NC(=O)c3cccn3C)CC2)c1	-13.4%
CC(C)CN1CCCC(c2nc(O)c3cc(F)ccc3n2)C1 (stereo not drawn)	1.3%
CCc1c(C)nc2cc(C3CCN(Cc4ccccc4F)C3)nn2c1O (stereo not drawn)	-2.56%
CNCc1cc(C)n(-c2ccccc2OC)c1C	-5.13%
CCc1nc2n(n1)CC(NCc1nc(-c3ccccn3)no1)CC2 (stereo not drawn)	-3.45%
Cc1nn(C)c(C)c1NC(=O)c1cccc(CN2CC[C@H](O)C2)c1	-0.546%
CC(C)CCc1cc(C(=O)O)nc2[nH]c(=O)[nH]c(=O)c12	-15.5%
COCCCN(Cc1ccccn1)S(=O)(=O)c1ccc(OC)cc1	-14.1%
